Assay results taken from patent US7855200B2, “Method for treatment of gastric ulcers and ulcers induced by aspirin” (Council of Scientific and Industrial Research, priority 2006, dated 2010).
“And” between values parts separate entries of the source, which are not always exact repeats. Equal entries are not always repeated.

Tests used:
Format in all cases: in vivo, albino rats
[1] = tested on: acetyl salicylic acid induced gastric lesions; experiment: Acetyl salicylic acid (aspirin) induced gastric ulcer; parameters: Ulcer index Mean(SE): scale not given here; settings: rats, 25 mg/kg per orally daily for five days, aspirin 200 mg/kg; for inhibition at 25 mg/kg: Rattus norvegicus, po, 120 h
Method: Stress induced gastric ulceration The commercially available drug ranitidine (sigma), Omeprazole (sigma) and sucralfate (Merck) were used as reference standard in experimental models. The Tween-80 (SD fine chemicals) was used as vehicle for the administration of the drug, which is used as control. Antiulcer activity of the compounds under taken was studied. The animals were divided into 20 groups of 6 animals each. Group 1 received the vehicle Tween 80 (1%, 1 ml) which served as the control. Group 2 received ranitidine at a dose of 50-mg/kg body weight, which served as standard for comparison. Group 3 to 20 at a dose of 25 mg/kg body weight. Rats were administered per orally with a daily dose of the compounds and the drug ranitidine for a period of five days and then fasted for 24 hours. The […] acetyl salicylic acid (aspirin) at a dose of 200 mg/kg body weight was administered as a suspension in tween-80 (1%), 30 min after the drug administration each day. All drugs were administered orally on the 6th day after the last administration of the drugs and the ulcer inducing agent aspirin, the rats were killed by cervical dislocation and their stomach were opened along the greater curvature and washed with luke warm saline and examined under a dissecting microscope. The ulcer index was calculated for each stomach. […] The antiulcer activity of the compounds was studied. The animals were divided into 19 groups of 6 animals each. Group 1 received the vehicle Tween 80 (1%, 1 ml) which served as the control. Group 2 received ranitidine at a dose of 50-mg/kg-body weight, which served as standard for comparison. […] Rats were administered per orally with a daily dose of the compounds and the drug ranitidine to respective groups for a period of five days and then fasted for 24 hours. The […] acetyl salicylic acid (aspirin) at a dose of 200 mg/kg body weight was administered as a suspension in tween-80 (1%), 30 min after the drug administration each day. All drugs were administered orally on ht […] day after the last administration of the drugs and the ulcer inducing agent aspirin, the rats were killed by cervical dislocation and their stomach were opened along the greater curvature and washed with luke warm saline and examined under a dissecting microscope.

[2] = tested on: gastric ulceration in cold restraint rats; experiment: Cold restraint (stress) induced ulcers; parameters: Ulcer index Mean(SE): scale not given here; settings: for inhibition at 25 mg/kg: po; for inhibition at 25 mg/kg / Ulcer index Mean(SE): rats, 4° C. for 2 hours
Description: (§1) The compounds taken under study for antigastric ulcer screening by four different models were selected using experimental albino rats: • 1. Aspirin induced gastric ulceration • 2. Pylorus ligated gastric ulceration • 3. Ethanol induced gastric ulceration • 4. Stress induced gastric ulceration
(§2) The commercially available drug ranitidine (sigma), Omeprazole (sigma) and sucralfate (Merck) were used as reference standard in experimental models. The Tween-80 (SD fine chemicals) was used as vehicle for the administration of the drug, which is used as control.
(§3) The antiulcer activity of the compounds was studied. The animals were divided into 21 groups of 7 animals each. Group 1 received the vehicle Tween 80 (1%, 1 ml) which served as the control. Group 2 received ranitidine at a dose of 50-mg/kg body weight, which served as standard for comparison. Group 3 to 21 at a dose of 25 mg/kg body weight. Animals were deprived of food 48 hours before the experiment. The water was allowed for free access. Rats were administered per orally with compounds and the drug ranitidine. The water was removed 1 hour before restraint and exposed to a temperature of 4° C. for 2 hours. Two hours after stress, the animals were sacrificed. The stressed animals were opened along the greater curvature and the severity of gastric ulcer was assessed in terms of mean ulcer index. 2.
as §3, with “8” for “21”, “6” for “7”, “50, 25, 15, 10 and 5” for “25”, “weight respectively.” for “weight.”, “index.” for “index. 2.”

[3] = tested on: ethanol induced gastric ulcers; experiment: Ethanol induced ulcers; settings: rats, ethanol challenge; for Acidity Total mEg / Gastric content / pH: 4 hours after pylorus ligation
Method: Stress induced gastric ulceration The commercially available drug ranitidine (sigma), Omeprazole (sigma) and sucralfate (Merck) were used as reference standard in experimental models. The Tween-80 (SD fine chemicals) was used as vehicle for the administration of the drug, which is used as control. The animals were divided into 22 groups of 6 animals each. Animals were deprived of food for 48 hours but had free access to water. Group 1 received the vehicle Tween 80 (1%, 1 ml) which served as the control. Group 2 received ranitidine at a dose of 50-mg/kg-body weight, which served as standard for comparison. Group 3 to received Omeprazole at a dose of 30-mg/kg body weight, which served as standard for comparison. Group 4 received sucralfate at a dose of 400-mg/kg body weight, which served as standard for comparison. Group 5 to 22 received at a dose of 25 mg/kg body weight. Lesions were induced 1 hour after ethanol challenge animals. The stomach was ligated at the pylorus under ether anesthesia. 4 hours after pylorus ligation, the animals were sacrificed and the contents drained and centrifuges at 5000 rpm for 10 minutes. Aliquots of supernatant were used for determination of total acid by titrating with 0.01N NaOH using topfers reagent and phenolphthalein indicators. […] The animals were divided into 9 groups of 6 animals each. Animals were deprived of food for 48 hours but had free access to water. Group 1 received the vehicle Tween 80 (1%, 1 ml) which served as the control. Group 2 received ranitidine at a dose of 50-mg/kg-body weight, which served as standard for comparison. Group 3 to received Omeprazole at a dose of 30-mg/kg body weight, which served as standard for comparison. Group 4 received sucralfate at a dose of 400-mg/kg body weight, which served as standard for comparison. […] Lesions were induced 1 hour after ethanol challenge animals. The stomach was ligated at the pylorus under ether anesthesia. 4 hours after pylorus ligation, the animals were sacrificed and the contents drained and centrifuges at 5000 rpm for 10 minutes. Aliquots of supernatant were used for determination of total acid by titrating with 0.01N NaOH using topfers reagent and phenolphthalein indicators.

Pylorus ligated rats = experiment: Pylorus ligated ulcers; settings: 25 mg/kg, 4 hours after pylorus ligation; for inhibition at 25 mg/kg: Rattus norvegicus
Description: as §1, §2
The animals were divided into 19 groups of 6 animals each. Animals were deprived of food for 48 hours but had free access to water. Group 1 received the vehicle Tween 80 (1%, 1 ml) which served as the control. Group 2 received ranitidine at a dose of 50-mg/kg-body weight, which served as standard for comparison. […] After one hour of administration of drug the stomach was ligated at the pylorus under ether anesthesia. 4 hours after pylorus ligation, the animals were sacrificed and the contents drained and centrifuges at 5000 rpm for 10 minutes. Aliquots of supernatant were used for determination of total acid by titrating with 0.01N NaOH using topfers reagent and phenolphthalein indicators. 4.
The animals were divided into 7 groups of 6 animals each. Animals were deprived of food for 48 hours but had free access to water. Group 1 received the vehicle Tween 80 (1%, 1 ml) which served as the control. Group 2 received ranitidine at a dose of 50-mg/kg-body weight, which served as standard for comparison. Group 3 to 7 received at a dose of 50, 25, 15, 10 and 5 mg/kg body weight respectively. After one hour of administration of drug the stomach was ligated at the pylorus under ether anesthesia. 4 hours after pylorus ligation, the animals were sacrificed and the contents drained and centrifuges at 5000 rpm for 10 minutes. Aliquots of supernatant were used for determination of total acid by titrating with 0.01N NaOH using topfers reagent and phenolphthalein indicators.

[4] = Rattus norvegicus, 25 mg/kg per orally

Molecule | inhibition at 25 mg/kg [1] | Ulcer index Mean(SE) [1] | inhibition at 25 mg/kg [2, 4] | Ulcer index Mean(SE) ([2]; 25 mg/kg per orally) | inhibition at 25 mg/kg ([3]; Rattus norvegicus, 25 mg/kg) | Ulcer index Mean(SE) ([3]; 25 mg/kg) | Acidity Total mEg ([3]; 25 mg/kg) | Gastric content ([3]; 25 mg/kg) | pH ([3]; 25 mg/kg) | Acidity Total mEg (Pylorus ligated rats) | Gastric content (Pylorus ligated rats) | Ulcer index Mean(SE) (Pylorus ligated rats) | pH (Pylorus ligated rats) | inhibition at 25 mg/kg (Pylorus ligated rats) | also measured
O=c1cc(-c2ccccc2)oc2cc(O)c(O)c(O)c12 [Baicalein, 5,6,7-trihydroxy-2-phenyl-chromen-4-one] | 9.51% | 40.83 | 3.52% | 29.28 | 20% | 43.33 (±3.33) | 45.21 (±3.10) mEg | 3.5 (±0.20) | 3.33 (±0.10) | 49.21 (±2.20) m Eg | 2.00 (±0.22) | 40.66 (±5.50) | 3.01 (±0.30) | 18.9% | 
O=c1cc(-c2ccccc2)oc2cc(OC3OC(CO)C(O)C(O)C3O)cc(O)c12 (stereo not drawn) [CG, 5-Hydroxy-2-phenyl-7-(3,4,5-trihydroxy-6-hydroxymethyl-tetrahydro-pyran-2-yloxy)-chromen-4-one] | 52% | 21.66 | 47.7% | 21.00 | 52.5% | 31.66 (±4.41) | 20.01 (±4.41) mEg | 5.90 (±0.49) | 5.90 (±0.49) | 44.33 (±2.33) m Eg | 1.50 (±0.28) | 24.93 (±1.66) | 3.50 (±0.28) | 50.2% | 
O=c1cc(-c2ccccc2)oc2cc(OCCCN3CCOCC3)cc(O)c12 [CHM-2, 5-Hydroxy-7-(3-morpholin-4-yl-propoxy)-2-phenyl chromen-4-one] | 55.6% | 19.99 | 35.1% | 26.42 | 25% | 40.11 (±3.65) | 38.28 (±2.24) mEg | 2.8 (±0.72) | 4.00 (±0.18) | 41.48 (±3.20) m Eg | 1.88 (±0.62) | 25.82 (±2.00) | 3.79 (±0.20) | 48.5% | 
O=c1cc(-c2ccccc2)oc2cc(OCCCCN3CCOCC3)cc(O)c12 [CHM-3, 5-Hydroxy-7-(4-morpholin-4-yl-butoxy)-2-phenyl chromen-4-one] | 51.7% | 21.77 | 52.6% | 19.28 | 36.2% | 42.50 (±3.81) | 37.10 (±0.60) mEg | 3.8 (±0.30) | 4.16 (±0.12) | 44.10 (±2.20) m Eg | 2.24 (±0.22) | 27.46 (±3.00) | 3.41 (±0.16) | 45.2% | 
CN(C)CCCOc1cc(O)c2c(=O)cc(-c3ccccc3)oc2c1 [CHN-2, 7-(3-Dimethylamino-propoxy)-5-hydroxy-2-phenyl chromen-4-one] | 55.7% | 20.00 | 56.1% | 17.85 | 42.5% | 38.33 (±3.07) | 28.10 (±0.48) mEg | 3.2 (±0.42) | 5.14 (±0.36) | 37.18 (±4.20) m Eg | 1.80 (±0.46) | 20.83 (±2.00) | 4.25 (±0.09) | 58.4% | 
CN1C(=O)CN=C(c2ccccc2)c2cc(Cl)ccc21 [Diazepam, reference compound] |  |  |  |  |  |  |  |  |  |  |  |  |  |  | inhibition at 1 mg/kg ([2]; Rattus norvegicus, 2 h): 75.4%; Ulcer index Mean(SE) ([2]; 1 mg/kg): 10.00
COc1ccc2[nH]c([S+]([O-])Cc3ncc(C)c(OC)c3C)nc2c1 (stereo not drawn) [Omeprazole, reference compound] |  |  |  |  |  |  |  |  |  |  |  |  |  |  | inhibition at 30 mg/kg ([3]; Rattus norvegicus, 30 mg/kg): 67.5%; Ulcer index Mean(SE) ([3]; 30 mg/kg): 23.33 (±2.21); Gastric content ([3]; 30 mg/kg): 3.5 (±0.68); pH ([3]; 30 mg/kg): 4.65 (±0.19)
sucralfate [reference compound] |  |  |  |  |  |  |  |  |  |  |  |  |  |  | Inhibition % ([3]; 400 mg/kg): 87.50%; Ulcer index Mean(SE) ([3]; 400 mg/kg): 08.33 (±2.23); Acidity Total mEg ([3]; 400 mg/kg): 58.00 (±2.30) mEg; Gastric content ([3]; 400 mg/kg): 3.01 (±0.48) and 3.0 (±0.48); pH ([3]; 400 mg/kg): 3.00 (±0.19)
